Where “and” joins values, the source holds several entries; their conditions need not be identical. Identical values can stand only once.
What was measured:
[1] = tested on: Bacillus cereus [clinical isolates]; assay: Disk diffusion test; type: cell-based
[2] = tested on: Pseudomonas aeruginosa [ATCC27833]; assay: Disk diffusion test; type: cell-based; details: for zone of inhibition at 100 µg/disc: ATCC27833
[3] = tested on: Bacillus subtilis [ATCC6633]; assay: Disk diffusion test; type: cell-based; details: for Zone of Inhibition: standards 30 μg/disk; for zone of inhibition at 100 µg/disc: ATCC6633
[4] = tested on: Vibrio parahemolyticus [clinical isolates]; assay: Disk diffusion test; type: cell-based; details: for Zone of Inhibition: Vibrio parahemolyticus, standards 30 μg/disk; for zone of inhibition at 100 µg/disc: Vibrio
[5] = tested on: Bacillus megaterium [ATCC 25918]; assay: Disk diffusion test; type: cell-based; details: for Zone of Inhibition: Bacillus megaterium, standards 30 μg/disk; for zone of inhibition at 100 µg/disc: Priestia megaterium, ATCC25918
[6] = tested on: Vibrio mimicus [clinical isolates]; assay: Disk diffusion test; type: cell-based; details: for Zone of Inhibition: standards 30 μg/disk
[7] = tested on: Shigella dysenteriae [clinical isolates]; assay: Disk diffusion test; type: cell-based; details: for Zone of Inhibition: standards 30 μg/disk
[8] = tested on: Salmonella typhi [clinical isolates]; assay: Disk diffusion test; type: cell-based; details: for Zone of Inhibition: Salmonella typhi; for zone of inhibition at 100 µg/disc: Salmonella enterica, TYPHI
[9] = tested on: Escherichia coli [ATCC25922]; assay: Disk diffusion test; type: cell-based; details: for Zone of Inhibition: standards 30 μg/disk; for zone of inhibition at 100 µg/disc: ATCC25922
[10] = tested on: Staphylococcus aureus [ATCC25923]; assay: Disk diffusion test; type: cell-based; details: for Zone of Inhibition: standards 30 μg/disk; for zone of inhibition at 100 µg/disc: ATCC25923
[11] = tested on: Sarcina lutea [clinical isolates]; assay: Disk diffusion test; type: cell-based; details: for Zone of Inhibition: Sarcina lutea, standards 30 μg/disk; for zone of inhibition at 100 µg/disc: Micrococcus luteus
[12] = tested on: Salmonella paratyphi [clinical isolates]; assay: microbe, parasite or virus in culture; type: cell-based; details: for Zone of Inhibition: Salmonella paratyphi, standards 30 μg/disk; for zone of inhibition at 100 µg/disc: Salmonella enterica, PARATYPHI
[13] = tested on: castor oil‐induced diarrhea; assay: Castor oil‐induced diarrhea test; type: in vivo, Swiss albino mice; details: mice; for Number of diarrheal feces: mean
Description: (§1) To carry out the in vivo experiment, Swiss albino mice aged between 4 and 5 weeks, of both genders, were obtained from the Animal Resource Branch of the International Centre for Diarrheal Diseases and Research, Bangladesh (ICDDR, B) (the size of the animal population, n = 5). The mice were housed in standard polypropylene cages with a 12‐h light–dark cycle. Additionally, optimal conditions such as a controlled room temperature of 24°C ± 2°C and a relative humidity of 60%–70% were upheld. They were provided with ICDDR, B‐formulated rodent food, and water ad libitum. The research protocol was approved by the Animal Ethics Committee of the State University of Bangladesh, Dhaka (2023‐01‐04/SUB/A‐ ERC/003) before initiating the study. Throughout the experiments, strict adherence to guidelines for the use and care of laboratory animals was ensured. Recognizing the sensitivity of mice to environmental variations, they were acclimatized to the experimental conditions for a minimum of 3–4 days before the commencement of the experiment. Furthermore, all ethical protocols and regulations were strictly adhered to during the design and execution of the research experiments. At the end of the experiment, an anesthesia overdose (Ketamine HCl [100 mg/kg] and Xylazine [7.5 mg/kg]) through the intraperitoneal route was given to the mice models followed by euthanasia, following the previously delineated protocols established by Zimmermann ([1983]) and Davis ([2001]) (Alam et al. [2021]; Davis [2001]; Zimmermann [1983]). All tests were carried out in abiding with the guidelines for the care and use of laboratory animals, as approved by the institutional ethical committee.
The antidiarrheal potential of the compounds Chabamide I and Chingchengenamide A isolated from P. chaba was scrutinized employing the castor oil‐induced method, as delineated by Shoba and Thomas ([2001]) with slight adjustments. In this investigation, mice were judiciously randomized into four cohorts, each consisting of six subjects. Before experimentation, the mice underwent an overnight fasting period with unrestricted access to water.
Group I, designated as the control, received vehicle solutions comprising distilled water with 1% Tween‐80. […] Groups III and IV, representing the test cohorts, received isolated phytochemicals individually at oral dosages of 10 and 20 mg/kg body weight, respectively. An additional 0.5 mL of castor oil was applied to all subjects 1 h after the initial application of test samples. Subsequently, individual mice were placed in enclosures with floors lined with transparent paper.
Throughout the observational timeframe, diverse parameters were meticulously monitored, encompassing the initiation of diarrhea, quantification of wet stools in terms of number and weight, and the cumulative number and weight of fecal output. The observation persisted until 4 h […] the subsequent application of castor oil, with the calculated mean values being designated as the definitive results.

[14] = tested on: acetic acid‐induced writhing; assay: Acetic acid‐induced writhing test; type: in vivo, Swiss albino mice; details: mice; for Number of writhing: mean
Description: as §1
The analgesic efficacy of the isolated compounds, Chabamide I and Chingchengenamide A, was assessed utilizing the acetic acid‐induced writhing test, following the methodology outlined by Ahmad et al. ([2010]). […] Conversely, Groups III and IV received individual alkaloids at doses of 10 and 20 mg/kg; b.w, p.o., respectively. Subsequently, an intraperitoneal injection of acetic acid solution (0.6% v/v) was administered. The frequency of writhing responses was meticulously recorded at 5‐min intervals post‐acetic acid injection and monitored over 25 min.

[15] = tested on: eight tested human tumor cell lines; parameters: method as in Wang et al. [2014]; details: ref Wang et al. [2014]; cited from earlier work

Compound	Zone of Inhibition ([1]; standards 30 μg/disk)	Zone of Inhibition ([2]; standards 30 μg/disk)	Zone of Inhibition [3]	Zone of Inhibition [4]	Zone of Inhibition [5]	Zone of Inhibition [6]	Zone of Inhibition [7]	Zone of Inhibition ([8]; standards 30 μg/disk)	Zone of Inhibition [9]	Zone of Inhibition [10]	Zone of Inhibition [11]	Zone of Inhibition [12]	% reduction of diarrhea ([13]; 10 mg/kg b.w., oral)	Number of diarrheal feces ([13]; 10 mg/kg b.w., oral)	% reduction of diarrhea ([13]; 20 mg/kg b.w., oral)	Number of diarrheal feces ([13]; 20 mg/kg b.w., oral)	zone of inhibition at 100 µg/disc [1]	zone of inhibition at 100 µg/disc [2]	zone of inhibition at 100 µg/disc [3]	zone of inhibition at 100 µg/disc [4]	other results
CC1(C)S[C@@H]2[C@H](NC(=O)[C@H](N)c3ccc(O)cc3)C(=O)N2[C@H]1C(=O)O [Amoxicillin, amoxicillin, reference compound]	33 mm	38 mm	26 mm	35 mm	29 mm	28 mm	30 mm	31 mm	37 mm	36 mm	32 mm	32 mm									
CC[C@H]1OC(=O)[C@H](C)[C@@H](O[C@H]2C[C@@](C)(OC)[C@@H](O)[C@H](C)O2)[C@H](C)[C@@H](O[C@@H]2O[C@H](C)C[C@H](N(C)C)[C@H]2O)[C@](C)(O)C[C@@H](C)CN(C)[C@H](C)[C@@H](O)[C@]1(C)O [Azithromycin, azithromycin, reference compound]	35 mm	42 mm	32 mm	40 mm	33 mm	33 mm	38 mm	38 mm	39 mm	39 mm	37 mm	32 mm									
CC(C)CNC(=O)C1C(C(=O)N2CCCCC2)C=CC(c2ccc3c(c2)OCO3)C1c1ccc2c(c1)OCO2 (stereo not drawn) [Chabamide I]													43.33%	5.67	46.67%	5.33	20 mm	21 mm	11 mm	16 mm	Zone of Inhibition ([1]; 100 μg/disk): notable antimicrobial activity; Zone of Inhibition ([2]; 100 μg/disk): notable antimicrobial activity; zone of inhibition at 100 µg/disc [5]: 15 mm; zone of inhibition at 100 µg/disc [6]: 15 mm; zone of inhibition at 100 µg/disc [7]: 18 mm; zone of inhibition at 100 µg/disc [8]: 21 mm; Zone of Inhibition ([8]; 100 μg/disk): notable antimicrobial activity; zone of inhibition at 100 µg/disc [9]: 18 mm; zone of inhibition at 100 µg/disc [10]: 18 mm; zone of inhibition at 100 µg/disc [11]: 16 mm; zone of inhibition at 100 µg/disc [12]: 18 mm; % reduction of writhing ([14]; 10 mg/kg b.w., p.o.): 40.82%; Number of writhing ([14]; 10 mg/kg b.w., p.o.): 9.67; % reduction of writhing ([14]; 20 mg/kg b.w., p.o.): 53.06%; Number of writhing ([14]; 20 mg/kg b.w., p.o.): 7.67; inhibitory effectiveness against human tumor cell lines [15]: inhibitory effectiveness against at least one of eight tested human tumor cell lines
CC(C)CNC(=O)/C=C/C=C/CCc1ccc2c(c1)OCO2 [Chingchengenamide A]													33.33%	6.67	40%	6	17 mm	21 mm	13 mm	15 mm	zone of inhibition at 100 µg/disc [5]: 14 mm; zone of inhibition at 100 µg/disc [6]: 16 mm; zone of inhibition at 100 µg/disc [7]: 15 mm; zone of inhibition at 100 µg/disc [8]: 12 mm; zone of inhibition at 100 µg/disc [9]: 17 mm; zone of inhibition at 100 µg/disc [10]: 15 mm; zone of inhibition at 100 µg/disc [11]: 16 mm; zone of inhibition at 100 µg/disc [12]: 14 mm; % reduction of writhing ([14]; 10 mg/kg b.w., p.o.): 34.69%; Number of writhing ([14]; 10 mg/kg b.w., p.o.): 10.67; % reduction of writhing ([14]; 20 mg/kg b.w., p.o.): 42.86%; Number of writhing ([14]; 20 mg/kg b.w., p.o.): 9.33; inhibitory effectiveness against human tumor cell lines [15]: inhibitory effectiveness against at least one of eight tested human tumor cell lines
O=C(O)Cc1ccccc1Nc1c(Cl)cccc1Cl [Diclofenac Sodium, diclofenac sodium, reference compound]																					% reduction of writhing ([14]; standard, 5 mg/kg b.w., 5 mg/kg): 80% and 77.55%; Number of writhing ([14]; standard, 5 mg/kg b.w.): 3.67
CN(C)C(=O)C(CCN1CCC(O)(c2ccc(Cl)cc2)CC1)(c1ccccc1)c1ccccc1 [Loperamide, loperamide, reference compound]																					Number of diarrheal feces ([13]; standard, 5 mg/kg b.w.): 2

— PMC11666819, “Isolation, Structure Elucidation, and Bioactivity Evaluation of Two Alkaloids From Piper chaba H. Stem: A Traditional Medicinal Spice and Its Chemico‐Pharmacological Aspects” (Food Science & Nutrition, 2024)
